According to ChEMBL document CHEMBL1150204, “Cystodytins D-I, new cytotoxic tetracyclic aromatic alkaloids from the Okinawan marine tunicate Cystodytes dellechiajei” (J Nat Prod, 1991):
≈ marks a conversion by molar mass, not a printed value.

Assays:
[1] = tested on: L1210; assay: Cytotoxicity against mouse L1210 cells; type: functional, cell-based
[2] = tested on: KB; assay: Cytotoxicity against human KB cells; type: functional, cell-based

SMILES	IC50 [1]	IC50 [2]
C/C=C(\C)C(=O)NCC(OC(=O)CCCCCCC/C=C/CCCCCCCC)C1=CC(=O)c2nccc3c2c1nc1ccccc13 (configuration not stated) [CYSTODYTIN I]	0.08 µg/mL (≈ 0.125 µM)	0.092 µg/mL (≈ 0.144 µM)
C/C=C(\C)C(=O)NCC(OC)C1=CC(=O)c2nccc3c2c1nc1ccccc13 (configuration not stated) [CYSTODYTIN G]	0.068 µg/mL (≈ 0.176 µM)	0.078 µg/mL (≈ 0.201 µM)
COC(CNC(=O)C=C(C)C)C1=CC(=O)c2nccc3c2c1nc1ccccc13 (configuration not stated) [CYSTODYTIN F]	0.068 µg/mL (≈ 0.176 µM)	0.078 µg/mL (≈ 0.201 µM)
C/C=C(\C)C(=O)NCC(O)C1=CC(=O)c2nccc3c2c1nc1ccccc13 (configuration not stated) [CYSTODYTIN E]	1.1 µg/mL (≈ 2.95 µM)	1.4 µg/mL (≈ 3.75 µM)
CCCCCCCC/C=C/CCCCCCCC(=O)OC(CNC(=O)C=C(C)C)C1=CC(=O)c2nccc3c2c1nc1ccccc13 (configuration not stated) [CYSTODYTIN H]	0.08 µg/mL (≈ 0.125 µM)	0.092 µg/mL (≈ 0.144 µM)
CC(C)=CC(=O)NCC(O)C1=CC(=O)c2nccc3c2c1nc1ccccc13 (configuration not stated) [CYSTODYTIN D]	1.1 µg/mL (≈ 2.95 µM)	1.4 µg/mL (≈ 3.75 µM)
